Source: patent US20240268419A1, “IgA PRODUCTION PROMOTING AGENT AND FEED COMPOSITION FOR PROMOTING IgA PRODUCTION” (Nippon Beet Sugar Manufacturing Co., Ltd., priority 2022, published 2024)

System: IgA production in the intestinal tract
Experiment: IgA concentration in feces of suckling calves fed DFAIII (ELISA)
Type: in vivo, Holstein calves
Conditions: for IgA Concentration (mg/g feces): mean ± standard deviation
Excerpt: Twelve head of Holstein calves in suckling period as test subjects were divided into a control group (7 head) and a DFAIII feeding group (5 head). Colostrum was fed to the calves up to 6 days old after birth. In the DFAIII feeding group, 6 g each of difructose anhydride III (DFAIII) (manufactured by Nippon Beet Sugar Manufacturing Co., Ltd.; product name: Koushi no Mikata) was mixed with the colostrum and fed to the calves in the first and second colostrum feeding after birth (at 0 to 1 day old). From 7 days old, the 7 head of calves in suckling period in the control group were fed with a starter, which is a mixed feed for calf in suckling period (manufactured by Nippon Beet Sugar Manufacturing Co., Ltd.; product name: Start; component contents: protein 22%, total digestible nutrients 74%), and the 5 head of calves in suckling period in the DFAIII feeding group were fed with a feed (DFAIII-containing feed) in which DFAIII (manufactured by Nippon Beet Sugar Manufacturing Co., Ltd.) was added in an amount of 2.0 wt % to and mixed with the starter, by free feeding together with hay and water. The amount 2.0 wt % of DFAIII in the DFAIII-containing feed is calculated as the weight proportion (w/w %) of DFAIII relative to the total weight of the starter and DFAIII. From seven days old, 2 L of 15% milk substitute solution (without DFAIII) was further fed to the calves in suckling period twice a day.
Fresh feces were collected from the calves of each test group at 7 days old, 14 days old, 21 days old, and 28 days old. The IgA concentrations in feces were measured by the ELISA method using an IgA ELISA Quantitation Kit (manufactured by BETHYL Laboratories, Inc.). The IgA concentration in feces was expressed in a milligram amount of IgA per wet mass of the feces.

`OC[C@H]1O[C@@]2(CO[C@]3(CO)O[C@H](CO)[C@@H](O)[C@@H]3O2)[C@@H](O)[C@@H]1O` [DFAIII, di-D-fructofuranose 1, 2:2,3′ dianhydride] was tested, and the “IgA Concentration (mg/g feces)” value (7 days old, Holstein calves in suckling period, 6 g DFAIII in first and second colostrum feeding) was 0.65 ± 0.32 mg/g feces, the “IgA Concentration (mg/g feces)” value (14 days old, 6 g DFAIII in colostrum x2, then starter with 2.0 wt % DFAIII from 7 days old, free feeding) was 1.19 ± 0.45 mg/g feces and the “IgA Concentration (mg/g feces)” value (21 days old, 6 g DFAIII in colostrum x2, then starter with 2.0 wt % DFAIII from 7 days old, free feeding) was 2.60 ± 1.01 mg/g feces. For the same compound, the “IgA Concentration (mg/g feces)” value (28 days old, 6 g DFAIII in colostrum x2, then starter with 2.0 wt % DFAIII from 7 days old, free feeding) was 1.01 ± 1.34 mg/g feces and the “IgA concentrations in feces in comparison with the control group” value (DFAIII feeding group vs control group, Holstein calves in suckling period) was “statistically significantly higher”.
